# Measured values taken from PMC3942006, “Ruthenium-Nitrosyl Complexes with Glycine, L-Alanine, L-Valine, L-Proline, D-Proline, L-Serine, L-Threonine, and L-Tyrosine: Synthesis, X-ray Diffraction Structures, Spectroscopic and Electrochemical Properties, and Antiproliferative Activity” (Inorganic Chemistry, 2014).
# Experiments:
# [1] = tested on: SW480 (human adenocarcinoma of the colon) cells; test: MTT assay, antiproliferative activity in SW480 cells; type: cell-based; details: for more active than the respective osmium analogue: SW480 cells; for IC50: MTT assay, exposure time 96 h, means ± SD
# Text: (§1) CH1 cells (human ovarian carcinoma) were a generous gift from Lloyd R. Kelland, CRC Centre for Cancer Therapeutics, Institute of Cancer Research, Sutton, UK. SW480 (human adenocarcinoma of the colon) and A549 (human nonsmall cell lung cancer) cells were kindly provided by Brigitte Marian (Institute of Cancer Research, Department of Medicine I, Medical University of Vienna, Austria). All cell culture media and reagents were purchased from Sigma-Aldrich Austria and plastic ware from Starlab Germany. Cells were grown in 75 cm^2 culture flasks as adherent monolayer cultures in minimum essential medium (MEM) supplemented with 10% heat-inactivated fetal calf serum, 1 mM sodium pyruvate, 4 mM L-glutamine, and 1% nonessential amino acids (from 100× ready-to-use stock). Cultures were maintained at 310 K in humidified atmosphere containing 95% air and 5% CO2.
# (§2) Cytotoxic effects of the test compounds were determined by means of a colorimetric microculture assay [MTT assay; MTT = 3-(4,5-dimethyl-2-thiazolyl)-2,5-diphenyl-2H-tetrazolium bromide] as described previously.[13] Cells were harvested from culture flasks by trypsinization and seeded by using a pipetting system (Biotek Precision XS Microplate Sample Processor) in densities of 1 × 10^3 (CH1), 2 × 10^3 (SW480), and 3 × 10^3 (A549) in 100 μL/well aliquots in 96-well microculture plates. For 24 h, cells were allowed to settle and resume proliferation. […] After 96 h of drug exposure, the medium was replaced with 100 μL/well of a 1:7 MTT/RPMI 1640 mixture (MTT solution, 5 mg/mL of MTT reagent in phosphate-buffered saline; RPMI 1640 medium, supplemented with 10% heat-inactivated fetal bovine serum and 4 mM L-glutamine), and plates were incubated for further 4 h at 310 K. Subsequently, the solution was removed from all wells, and the formazan crystals formed by viable cells were dissolved in 150 μL of DMSO per well. Optical densities at 550 nm were measured with a microplate reader (Biotek ELx808) by using a reference wavelength of 690 nm to correct for unspecific absorption. The quantity of viable cells was expressed relative to untreated controls, and 50% inhibitory concentrations (IC50) were calculated from concentration-effect curves by interpolation. Evaluation is based on means from three independent experiments.
# [2] = tested on: CH1 cells (human ovarian carcinoma); test: MTT assay, antiproliferative activity in CH1 cells; type: cell-based; details: for more active than the respective osmium analogue: CH1 cells; for IC50: MTT assay, exposure time 96 h, means ± SD
# Text: as §1, §2
# [3] = log D7.4 by shake-flask method, n-octanol/buffered aqueous solution; type: physicochemical; details: for log D7.4 in the presence of 0.1 M KCl: n-octanol/0.02 M HEPES pH 7.4, 0.1 M KCl, T = 298.0 K; for log D7.4: n-octanol/0.02 M HEPES pH 7.4, T = 298.0 K
# Description: ^1H NMR spectra were recorded on a Bruker Avance III instrument (Ultrashiled Magnet) at 500.13 MHz at room temperature. DMSO-d6 was used as a solvent. Standard pulse programs were applied. ^1H chemical shifts were measured relative to the residual solvent peaks. […] Complex concentration was 1.0 mM. Watergate water suppression program and 4,4-dimethyl-4-silapentane-1-sulfonic acid (DSS) internal standard were used. ATR-IR spectra were measured on a Bruker Vertex spectrometer. D7.4 values were determined by the traditional shake-flask method in n-octanol/buffered aqueous solution at pH 7.4 (N-(2-hydroxyethyl)piperazine-N′-ethanesulfonic acid (HEPES) buffer) and 298.0 ± 0.2 K, as described previously.[25] In the case of the complexes of L-Ala (2) and L-Val (3) the D7.4 values were determined in the presence of 0.1 M KCl as well. Two parallel experiments were performed for each sample. The complexes were dissolved at 0.3 mM in the n-octanol presaturated aqueous solution of the buffer (0.02 M). The aqueous solutions and n-octanol with 1:1 phase ratio were gently mixed with 360° vertical rotation for 3 h to avoid emulsion formation, and the mixtures were centrifuged at 5000 rpm for 3 min by a temperature-controlled centrifuge at 298 K. After separation, UV spectra of the complexes in the aqueous phase were compared to those of the original aqueous solutions, and D7.4 values were calculated as the mean of [absorbance (original solution)/absorbance (aqueous phase after separation) – 1] obtained in the region of λ ≈ (250–290 nm). Circular dichroism (CD) and UV–vis spectra under physiological conditions (0.02 M phosphate buffer, pH 7.40 with 0.1 M KCl) were recorded on a Jasco J-815 spectrometer in an optical cell of 2 cm path length (l) in the wavelength range from 220 to 600 nm. The analytical concentration for the CD measurement of the complexes was 400 μM in aqueous solution. CD data are given as the differences in molar absorptivities between left and right circularly polarized light, based on the concentration of the […] (Δε = ΔA/l/ccomplex). The concentrations for the UV–vis measurements amounted to 403 (1), 401 (4), 401 (5), 400 (8), 399 (3), 401 (2), 403 (7), and 401 (6) μM.
# The log D7.4 values of the complexes were determined by the traditional shake-flask method in n-octanol/buffered aqueous solution at pH 7.4 by analysis of the UV–vis spectra of the aqueous phases before and after separation (Supporting Information, Figure S10 and Table 5).
# [4] = tested on: A549 (human nonsmall cell lung cancer) cells; test: MTT assay, antiproliferative activity in A549 cells; type: cell-based; details: exposure time 96 h, means ± SD
# Text: as §1, §2
# [5] = Aqueous stability by ESI mass spectrometry; type: physicochemical; details: 50 μM in water, 310 K, over 24 h
# Description: (§3) The stability of four compounds, namely 1, 4, 5, and 8, in aqueous solution and in the presence of 4 equiv of sodium ascorbate was investigated using an AmaZon SL ESI ion trap mass spectrometer (Bruker Daltonics GmbH, Bremen, Germany). For this purpose, the compounds were diluted from 400 μM stock solution (1% DMSO) to 50 μM in water and in the presence of 200 μM sodium ascorbate. The solutions were incubated at 310 K in the dark, and samples were measured after 0.5, 1, 2, 6, and 24 h after a second dilution step to 5 μM of the metal compound. The samples were introduced by direct infusion into the mass spectrometer at 280 μL/h, and mass spectra were recorded over 0.5 min and averaged. Typical experimental conditions were as follows: high voltage (HV) capillary ±4.5 kV, dry temp 180 °C, nebulizer 8 psi, dry gas 6 L/min, radio frequency (RF) level 77%, trap drive 57.6, average accumulation time 25 ms (negative ion mode) and 120 μs (positive ion mode). […]
# (§4) The aqueous stability of compounds 1, 4, 5, and 8 was also confirmed by ESI mass spectrometry. […] Dissolution of 1 in D2O leads to the change of the labile −NH2 to −ND2, and the resulting compound [RuCl3(N,N-d2-Gly−H)(NO)] ^– (m/z 314.74 compared to m/z 312.72 of 1) was analyzed. […] Note that related ruthenium-nitrosyl complexes with azole heterocycles reacted quantitatively with sodium ascorbate within several hours.[15]
# [6] = Co-incubation with sodium ascorbate followed by ESI mass spectrometry; type: physicochemical; details: 4 equiv sodium ascorbate (200 μM), 310 K, over 24 h
# Description: as §3, §4
# [7] = Hydrolytic stability by 1H NMR spectroscopy; type: physicochemical; details: 10% D2O/H2O, pH = 5.86, compared with pH 7.4 buffer
# Description: ^1H NMR spectra were recorded on a Bruker Avance III instrument (Ultrashiled Magnet) at 500.13 MHz at room temperature. DMSO-d6 was used as a solvent. Standard pulse programs were applied. ^1H chemical shifts were measured relative to the residual solvent peaks. […] Complex concentration was 1.0 mM. Watergate water suppression program and 4,4-dimethyl-4-silapentane-1-sulfonic acid (DSS) internal standard were used. ATR-IR spectra were measured on a Bruker Vertex spectrometer. D7.4 values were determined by the traditional shake-flask method in n-octanol/buffered aqueous solution at pH 7.4 (N-(2-hydroxyethyl)piperazine-N′-ethanesulfonic acid (HEPES) buffer) and 298.0 ± 0.2 K, as described previously.[25] In the case of the complexes of L-Ala (2) and L-Val (3) the D7.4 values were determined in the presence of 0.1 M KCl as well. […] The aqueous solutions and n-octanol with 1:1 phase ratio were gently mixed with 360° vertical rotation for 3 h to avoid emulsion formation, and the mixtures were centrifuged at 5000 rpm for 3 min by a temperature-controlled centrifuge at 298 K. After separation, UV spectra of the complexes in the aqueous phase were compared to those of the original aqueous solutions, and D7.4 values were calculated as the mean of [absorbance (original solution)/absorbance (aqueous phase after separation) – 1] obtained in the region of λ ≈ (250–290 nm). […]
# [8] = Stability in aqueous solution by UV-vis spectroscopy; type: physicochemical; details: pH 7.40, 0.02 M HEPES, 0.25 mM, 298.0 K, in the presence of 0.1 M KCl or in its absence
Molecule,more active than the respective osmium analogue [1] [fold],more active than the respective osmium analogue [2] [fold],IC50 [1] [µM],log D7.4 in the presence of 0.1 M KCl [3],log D7.4 [3],IC50 [4] [µM],IC50 [2] [µM],"aqueous stability, species in negative ion mode ESI mass spectra [5]",ligand release on incubation with sodium ascorbate [6],hydrolytic stability: 1H NMR in nonbuffered medium [7],hydrolysis over 24 h (absorbance at 250 nm) [8]
(nBu4N)[RuCl3(D-Pro–H)(NO)] [complex 5],14,11,,,,,,,,,
"CCCC[N+](CCCC)(CCCC)CCCC.C[C@@H]1[NH2+][Ru-2]([Cl])([Cl])([Cl])([N]=O)[O]C1=O [complex 2, (nBu4N)[RuCl3(L-Ala–H)(NO)]]",,,47 ± 3,–1.47 ± 0.11,–1.63 ± 0.08,> 320,12 ± 2,,,,
"CCCC[N+](CCCC)(CCCC)CCCC.C[C@@H](O)[C@@H]1[NH2+][Ru-2]([Cl])([Cl])([Cl])([N]=O)[O]C1=O [complex 7, (nBu4N)[RuCl3(L-Thr–H)(NO)]]",,,71 ± 15,,–1.75 ± 0.02,> 320,23 ± 2,,,,
"CCCC[N+](CCCC)(CCCC)CCCC.O=[N][Ru-2]1([Cl])([Cl])([Cl])[NH2+][C@@H](Cc2ccc(O)cc2)C(=O)[O]1 [complex 8, (nBu4N)[RuCl3(L-Tyr–H)(NO)]]",,,38 ± 12,,,> 320,17 ± 3,[RuCl3(AA–H)NO]^− as the major species,did not induce ligand release,showed the same NMR spectra,negligible
"CCCC[N+](CCCC)(CCCC)CCCC.O=[N][Ru-2]1([Cl])([Cl])([Cl])[NH2+][C@@H](CO)C(=O)[O]1 [complex 6, (nBu4N)[RuCl3(L-Ser–H)(NO)]]",,,63 ± 10,,–1.77 ± 0.12,> 320,13 ± 2,,,,
(nBu4N)[RuCl3(L-Val–H)(NO)] [complex 3],,,53 ± 2,–1.31 ± 0.07,–1.13 ± 0.02,> 320,27 ± 3,,,,
(nBu4N)[RuCl3(L-Pro–H)(NO)] [complex 4],4.4,5.7,,,,,,,,,
